Like-named read-outs stand apart in the source and are kept apart here.
Key:
[1] = test system: morningglory; test: Test A pre-/postemergence herbicide test; type: in vivo, Ipomoea spp.; settings: for Morningglory plant response rating: Preemergence, visual rating on 0 to 100 scale (0 no effect, 100 complete control)
In short: (§1)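 Visual 0–100 ratings (100 = complete control) made about 10 days after treatment, greenhouse-held plants compared with untreated controls. Treatments: postemergence sprays on one- to two-leaf plants (2–10 cm tall) and preemergence directed soil sprays after planting in loam–sand, chemicals formulated in non-phytotoxic solvent containing surfactant.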

[2] = test system: velvetleaf; test: Test A pre-/postemergence herbicide test; type: in vivo, Abutilon theophrasti; settings: for Velvetleaf plant response rating: Preemergence, visual rating on 0 to 100 scale (0 no effect, 100 complete control)
In short: as §1

[3] = test system: kochia; test: Test C pre-/postemergence herbicide test; type: in vivo, Kochia scoparia
In short: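 Greenhouse plants scored visually against untreated controls 13–15 days after treatment, 0 = no effect, 100 = complete control. Test chemicals in a non-phytotoxic solvent with surfactant were applied either to soil (loam/sand) at planting or to foliage of 1- to 4-leaf plants, 2–18 cm tall.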

[4] = test system: chickweed; test: Test C postemergence herbicide test; type: in vivo, Stellaria media
Excerpt: At the same time, plants selected from these crop and weed species and also barley (winter barley, Hordeum vulgare), […]), chickweed (common chickweed, Stellaria media), deadnettle (henbit deadnettle, Lamium amplexicaule), and canarygrass (littleseed canarygrass, Phalaris minor) were planted in pots containing Redi-Earth® planting medium (Scotts Company, 14111 Scottslawn Road, Marysville, Ohio 43041) comprising spaghnum peat moss, vermiculite, wetting agent and starter nutrients and treated with postemergence applications of test chemicals formulated in the same manner. Plants ranged in height from 2 to 18 cm (1- to 4-leaf stage) for postemergence treatments. Treated plants and controls were maintained in a greenhouse for 13 to 15 days, after which time all species were compared to controls and visually evaluated. Plant response ratings, summarized in Table C, are based on a scale of 0 to 100 where 0 is no effect and 100 is complete control. A dash (-) response means no test result.

[5] = test system: ryegrass, Italian; test: Test A pre-/postemergence herbicide test; type: in vivo, Lolium multiflorum
In short: as §1

[6] = Postemergence, 125 g ai/ha, 0 to 100 scale, 0 no effect, 100 complete control
[7] = Postemergence, 500 g ai/ha, 0 to 100 scale (0 no effect, 100 complete control)
[8] = preemergence, 500 g ai/ha, 0 to 100 scale
[9] = Postemergence, 31 g ai/ha, scale 0 (no effect) to 100 (complete control)
[10] = Postemergence, 62 g ai/ha, scale 0 to 100 (0 no effect, 100 complete control)
[11] = Postemergence, 125 g ai/ha, scale 0 to 100 (0 no effect, 100 complete control)
[12] = Preemergence, 62 g ai/ha, scale 0 to 100
[13] = Preemergence, 125 g ai/ha, scale 0 to 100 (0 no effect, 100 complete control)
[14] = 31 g ai/ha, scale 0 (no effect) to 100 (complete control)
[15] = 62 g ai/ha, scale 0 to 100 (0 no effect, 100 complete control)
[16] = 125 g ai/ha, scale 0 to 100 (0 no effect, 100 complete control)
[17] = Postemergence, 1000 g ai/ha, 0 to 100 scale (0 no effect, 100 complete control)
[18] = preemergence, 1000 g ai/ha, 0 to 100 scale
[19] = Postemergence, 250 g ai/ha, scale 0 to 100 (0 no effect, 100 complete control)
[20] = 250 g ai/ha, scale 0 to 100 (0 no effect, 100 complete control)
[21] = Postemergence, 31 g ai/ha, scale 0 to 100 (0 no effect, 100 complete control)
[22] = Postemergence, 62 g ai/ha, scale 0 (no effect) to 100 (complete control)
[23] = 31 g ai/ha, scale 0 to 100 (0 no effect, 100 complete control)
[24] = 62 g ai/ha, scale 0 (no effect) to 100 (complete control)

SMILES	Plant response rating, Morningglory [1, 6]	Plant response rating, Morningglory [1, 7]	Morningglory plant response rating ([1]; 125 g ai/ha)	Plant response rating, Morningglory [1, 8]	Plant response rating, Velvetleaf [2, 6]	Plant response rating, Velvetleaf [2, 7]	Velvetleaf plant response rating ([2]; 125 g ai/ha)	Plant response rating, Velvetleaf [2, 8]	Plant response rating, Kochia [3, 9]	Plant response rating, Kochia [3, 10]	Plant response rating, Kochia [3, 11]	Plant response rating, Chickweed [4, 14]	Plant response rating, Chickweed [4, 15]	Plant response rating, Chickweed [4, 16]	Plant response rating, Kochia [3, 19]	Plant response rating, Chickweed [4, 20]	further results
O=C1NCC(c2ccc(F)c(Cl)c2)C1C(=O)Nc1ccccc1F (centres unmarked) [Compound 60]	0	0	0	0	0	0	0	0	0	10	45	0	10	30			Plant response rating, Kochia [3, 12]: 0; Plant response rating, Kochia [3, 13]: 0
Cc1c(F)cccc1NC(=O)C1C(=O)NCC1c1ccc(F)c(F)c1 (racemic) [Compound 106]									0	40	30	0	0	5	35	30	Plant response rating, Morningglory [1, 17]: 20; Plant response rating, Morningglory [1, 18]: 0; Plant response rating, Velvetleaf [2, 17]: 40; Plant response rating, Velvetleaf [2, 18]: 0
Cc1ccccc1NC(=O)C1C(=O)NCC1c1cccc(C(F)(F)F)c1 (racemic) [Compound 109]									0	0	0	0	0	0	0	0	Plant response rating, Ryegrass, Italian [5, 6]: 20; Plant response rating, Ryegrass, Italian [5, 7]: 30; Ryegrass, Italian plant response rating ([5]; Preemergence, 125 g ai/ha, visual rating on 0 to 100 scale (0 no effect, 100 complete control)): 0; Plant response rating, Ryegrass, Italian [5, 8]: 50
O=C1NCC(c2cc(F)c(F)c(F)c2)C1C(=O)Nc1cccc(F)c1F (centres unmarked) [Compound 48]	0	20	0	0	0	20	0	0	10	10	20	0	30	30			Plant response rating, Kochia ([3]; Postemergence, 16 g ai/ha, scale 0 to 100 (0 no effect, 100 complete control)): 0; Plant response rating, Kochia [3, 12]: 10; Plant response rating, Kochia [3, 13]: 10; Plant response rating, Kochia ([3]; Preemergence, 16 g ai/ha, scale 0 to 100): 0; Plant response rating, Chickweed ([4]; 16 g ai/ha, scale 0 to 100 (0 no effect, 100 complete control)): 0
O=C1NCC(c2ccc(C(F)(F)F)cc2)C1C(=O)Nc1ccccc1F (centres unmarked) [Compound 79, N-(2-fluorophenyl)-2-oxo-4-[4-(trifluoromethyl)phenyl]-3-pyrrolidinecarboxamide]			0				0		5	55	55	60	80	90		90	pest or weed control at 125 g/ha ([1]; Ipomoea, post-emergence, 240 h, Postemergence, 125 g ai/ha, 0 to 100 scale, 0 no effect, 100 complete control, read-out: Plant response rating, Morningglory): 0%; pest or weed control at 500 g/ha ([1]; Ipomoea, post-emergence, 240 h, Postemergence, 500 g ai/ha, 0 to 100 scale (0 no effect, 100 complete control), read-out: Plant response rating, Morningglory): 10%; pest or weed control at 500 g/ha ([1]; Ipomoea, pre-emergence, 240 h, preemergence, 500 g ai/ha, 0 to 100 scale, read-out: Plant response rating, Morningglory): 0%; pest or weed control at 125 g/ha ([2]; Abutilon theophrasti, post-emergence, 240 h, Postemergence, 125 g ai/ha, 0 to 100 scale, 0 no effect, 100 complete control, read-out: Plant response rating, Velvetleaf): 10%; pest or weed control at 500 g/ha ([2]; Abutilon theophrasti, post-emergence, 240 h, Postemergence, 500 g ai/ha, 0 to 100 scale (0 no effect, 100 complete control), read-out: Plant response rating, Velvetleaf): 60%; pest or weed control at 500 g/ha ([2]; Abutilon theophrasti, pre-emergence, 240 h, preemergence, 500 g ai/ha, 0 to 100 scale, read-out: Plant response rating, Velvetleaf): 30%
O=C1NCC(c2cc(F)c(F)cc2F)C1C(=O)Nc1cccc(F)c1F (centres unmarked) [Compound 50]	0	0	0	0	0	0	0	0	0	0	0	0	0	0	0	5	
O=C1NCC(c2ccc(C(F)(F)F)cc2)C1C(=O)Nc1cccc(F)c1F (racemic) [Compound 202]											80			85	80	85	Plant response rating, Ryegrass, Italian ([5]; 125 g ai/ha, visual rating, 0 to 100 scale, 0 no effect, 100 complete control, approximately 10 days, preemergence): 60; Plant response rating, Ryegrass, Italian ([5]; Postemergence, 125 g ai/ha, 0 to 100 scale, 0 is no effect, 100 is complete control): 30; Ryegrass, Italian plant response rating (0 to 100 scale, 0 is no effect, 100 is complete control) ([5]; Postemergence, 500 g ai/ha): 40; Plant response rating, Ryegrass, Italian ([5]; preemergence, 500 g ai/ha, 0 to 100 scale, 0 is no effect and 100 is complete control): 60; Plant response rating, Kochia [3, 21]: 70; Plant response rating, Kochia [3, 22]: 75; Plant response rating, Chickweed [4, 23]: 80; Plant response rating, Chickweed [4, 24]: 80
O=C1NCC(c2cccc(Br)c2)C1C(=O)Nc1ccc(F)c(F)c1F (centres unmarked) [Compound 310]														90	80	85	Plant response rating, Ryegrass, Italian ([5]; Postemergence, 125 g ai/ha, visual rating on 0 to 100 scale (0 no effect, 100 complete control), approx. 10 days): 30; Plant response rating, Ryegrass, Italian [5, 7]: 30; Plant response rating, Ryegrass, Italian ([5]; Preemergence, 125 g ai/ha, 0 to 100 scale where 0 is no effect and 100 is complete control): 30; Ryegrass, Italian plant response rating ([5]; Preemergence, 500 g ai/ha, visual rating on 0 to 100 scale (0 no effect, 100 complete control)): 40; Plant response rating, Kochia [3, 21]: 40; Plant response rating, Kochia [3, 22]: 50; Plant response rating, Chickweed [4, 23]: 20; Plant response rating, Chickweed [4, 24]: 45

Source: patent publication US10294202B2, “Pyrrolidinones as herbicides” (FMC Corporation, priority 2013, dated 2019)
